Values of other authors in patent US20190282513A1, “COMPOUND FOR USE IN RELIEF OF PAIN AND METHOD TO PRODUCE THEREOF” (priority 2018, published 2019).

Assays:
[1] = taken orally
[2] = compared with ibuprofen

Compound	anti-inflammatory analgesic effect in cancer-related pain	treatment of chronic pain [1]	anti-inflammatory properties [2]
C=C(C)[C@@H]1CCC(C)=C[C@H]1c1c(O)cc(CCCCC)cc1O [CBD, cannabidiol]	effective anti-inflammatory analgesic	effectively treated chronic pain	–
C/C=C(/C=O)[C@@H](CC=O)CC(=O)OCCc1ccc(O)cc1 [oleocanthal]	–	–	anti-inflammatory properties similar to ibuprofen
